In paper PMC4986690 (Analytical chemistry, 2015):

Tests used:
[1] = molecular target: T1, sex hormone binding globulin (SHBG) (Homo sapiens, UniProt P04278)
T1 sequence (P04278 30-402): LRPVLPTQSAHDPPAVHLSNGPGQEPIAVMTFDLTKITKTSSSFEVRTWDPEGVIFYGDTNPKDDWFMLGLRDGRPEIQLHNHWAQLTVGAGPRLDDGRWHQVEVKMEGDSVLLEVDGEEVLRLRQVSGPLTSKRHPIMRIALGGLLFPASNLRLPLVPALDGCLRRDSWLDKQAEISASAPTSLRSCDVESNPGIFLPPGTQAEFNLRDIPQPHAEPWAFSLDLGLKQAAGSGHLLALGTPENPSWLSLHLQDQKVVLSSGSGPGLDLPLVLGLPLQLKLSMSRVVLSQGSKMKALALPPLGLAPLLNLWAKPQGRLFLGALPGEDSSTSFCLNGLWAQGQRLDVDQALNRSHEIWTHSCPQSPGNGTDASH

[2] = molecular target: human serum albumin (HSA) (Homo sapiens, UniProt P02768); assay: ultrafast affinity extraction, two-dimensional HSA microcolumns, UV […] nm; type: binding
Sequence of human serum albumin (HSA) (P02768 25-609): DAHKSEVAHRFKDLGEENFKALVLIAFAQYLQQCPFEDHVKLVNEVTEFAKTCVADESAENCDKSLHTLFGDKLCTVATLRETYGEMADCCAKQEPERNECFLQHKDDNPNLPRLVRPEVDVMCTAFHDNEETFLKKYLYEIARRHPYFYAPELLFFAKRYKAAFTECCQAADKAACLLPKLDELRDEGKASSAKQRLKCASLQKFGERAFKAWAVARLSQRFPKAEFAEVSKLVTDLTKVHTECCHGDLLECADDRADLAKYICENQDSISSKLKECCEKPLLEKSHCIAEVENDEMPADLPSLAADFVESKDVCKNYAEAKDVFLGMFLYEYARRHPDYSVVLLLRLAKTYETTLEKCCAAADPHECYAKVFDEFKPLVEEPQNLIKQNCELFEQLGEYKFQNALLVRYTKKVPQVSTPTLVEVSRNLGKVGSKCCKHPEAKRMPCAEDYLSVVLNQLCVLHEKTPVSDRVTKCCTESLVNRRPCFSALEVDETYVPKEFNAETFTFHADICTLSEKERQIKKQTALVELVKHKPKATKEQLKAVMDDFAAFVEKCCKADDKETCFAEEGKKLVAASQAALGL

SMILES: C[C@]12CC[C@H]3[C@@H](CCC4=CC(=O)CC[C@@]43C)[C@@H]1CC[C@@H]2O [testosterone]
- Kd [1]: 0.000909 µM
- Kd [2]: 31.2 µM
